Assay results from article PMC11336141.
Bridge positions count the residues as written; N and C are the ends. Square brackets hold non-standard residues; d marks the D form. Peptide text beside a SMILES is read from it.

Experiments:
isolated mouse islets = assay: Glucagon secretion from isolated islets; type: cell-based, mouse (C57BL/6J); settings: for Islet glucagon secretion: -9 log M peptide
Method: Female C57BL/6 J mice of 12–20 weeks were used for the islet secretion. Mice were killed by cervical dislocation and pancreatic islets were isolated as previously described. […] The islets were subsequently incubated with or without drugs in 10 mM glucose KRB for an hour. Supernatant from both incubations were collected. Total islet glucagon content was determined by acid-ethanol extraction. Both the supernatant and the acid-ethanol content were stored at −80 °C until further analysis. Glucagon in both supernatant and content were measured using U-plex metabolic 2-plex combo (mouse insulin and glucagon) kit (Meso Scale Diagnostic; catalog no: K15303K) according to manufacturer’s instruction.
(§1) Data analysis were performed in GraphPad Prism (v.9.4.1). Statistical analysis were performed using two-way repeated measure analysis of variance (ANOVA) with Šidák test for isolated islets glucagon secretion and one-way repeated measure ANOVA with Dunnett's test for rat pancreas perfusion experiments. Statistical significance was taken as p < 0.05.

[1] = Solubility in aqueous solutions (observation); settings: comparison of des-glyco nG1, pG1 and venom fraction
human SSTR2 (GoB) = molecular target: T1, human SSTR2 (GoB) (Homo sapiens, UniProt P30874); assay: G protein activation (BRET dissociation) assay, GoB at hSSTR2; type: cell-based;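 on Emax: percent of the maximal response to the reference somatostatin agonist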
T1 construct: host or cells: HEK293T cells
T1 sequence (P30874 whole entry): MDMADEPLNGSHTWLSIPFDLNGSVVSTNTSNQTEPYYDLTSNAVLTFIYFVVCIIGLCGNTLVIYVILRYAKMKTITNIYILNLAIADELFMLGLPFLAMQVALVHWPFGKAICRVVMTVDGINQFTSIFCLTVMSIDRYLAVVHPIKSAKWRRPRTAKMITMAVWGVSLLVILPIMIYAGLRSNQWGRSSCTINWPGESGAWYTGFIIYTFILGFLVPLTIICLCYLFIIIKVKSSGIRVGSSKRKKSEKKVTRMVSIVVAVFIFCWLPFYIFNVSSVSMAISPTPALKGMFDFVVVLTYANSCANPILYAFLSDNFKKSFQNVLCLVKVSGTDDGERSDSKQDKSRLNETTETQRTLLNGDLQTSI
Method: HEK293T cells were seeded onto 6-well plates at a density of 750,000 cells/well. […] 16 to 24 hours post-transfection, HEK293T cells were seeded onto white 96 well plate (PerkinElmer) coated with poly-L-lysine (PLL) at a density of 40,000 cells/well and were allowed to grow overnight. On the day of assay, cells were washed once with phosphate-based saline (PBS) and 80 µL of assay buffer which composed of PBS with 0.5 mM MgCl2 and 0.1% glucose, pH 7.4, were added onto each well. 10 µL of Nluc luciferase substrate furimazine (Promega) were added onto each well and incubated for 3 minutes.
The net BRET ratio was determined by subtracting the BRET ratio of drugs with the BRET ratio of vehicle control. Net BRET ratio over time was then plotted using GraphPad Prism (v.9.4.1), and the area-under-curve of net BRET ratio over time course for each ligand concentration tested were then determined and plotted against log(concentration) of drugs tested. […] Concentration response curves were fitted with a 4-parameter logistic Eq. (1) using GraphPad Prism (v.9.4.1):1 Y=Emin+(Emax−Emin)/1+10^logEC50−X×Hillslope

perfused rat pancreas = assay: Rat pancreas perfusion, glucagon output; design: species or system rat (Wistar)
Method: Non-fasted rats were anesthetized by a subcutaneous injection of a balanced mix of hypnorm and midazolam (0.3 mL/100 g body weight). Rats were placed on a heated operating table (37 °C) and the abdomen were opened. Blood vessels were tied off before removing the large and small intestines, the stomach, and the spleen. Then, the kidneys were ligated. […] The perfusion buffer was a modified Krebs-Ringer bicarbonate buffer with 5% (w/v) dextran T-70 (Pharmacosmos, Holbaek, Denmark), 0.1% (w/v) BSA (fraction V), 3.5 mM glucose and 3 mM vamin (Fresenius Kabi, Copenhagen, Denmark), pH adjusted to 7.4. […] Once perfusion of the pancreas was established, a catheter was inserted in the vena portae to collect the venous effluent and the rat was sacrificed by perforation of the diaphragm. After a 30-minute equilibration period, samples were collected every minute for the duration of the protocol. […] 10 mM L-Arginine was used as a positive control. Collected samples were immediately transferred on ice and stored at −20 °C until hormone analysis. Glucagon, insulin, and somatostatin concentrations in venous effluents were quantified by use of validated in-house radioimmunoassays (RIA) as previously described[36] (see below). Statistical analysis were performed where appropriate using one-way analysis of variance (ANOVA) with Dunnett’s post-test. Statistical significance was taken as p < 0.05.
Glucagon concentration in perfusion samples were measured by a validated in-house RIAs using the 4305 antibody, which reacts with the C-terminal epitope of glucagon[36] and no other cleavage products of pro-glucagon. Insulin concentrations were measured with the 2006 antibody, which measures all isoforms of rat insulin. […] Assay sensitivity was <1 pmol/L ( < 5 pmol/L for insulin detection), allowing reliable measurements of increments of at least 25 fmol/min.
as §1

human SSTR2 = human SSTR2 (Homo sapiens, UniProt P30874); assay: Quantification of ligand bias (operational model), G proteins at hSSTR2; type: cell-based; design: Bryan Roth (Addgene) Addgene kit # 1000000068; host or cells: HTLA cells; settings: for ∆log(tau/Ka): LogR(ligand) - LogR(SST-14); for LogR ± S.E.M.: log(τ/KA); for RE: relative efficacy; for ∆LogR ± S.E.M.: relative to SS-14; for G protein bias in words: ∆Log(τ/KA), SS-14 as reference
Chain of human SSTR2 (P30874 whole entry): as above
Source text: Ligand bias were quantified using the method described in[35]. […] The operational model (2)[35] was used to determine the transduction ratios (τ/KA).2 E=Emin+(Emax−Emin)/1+(1+A/10^logKA)/10^logRA^n where E is the effect of the ligand, [A] is the concentration of test ligands, Emax is the maximal response of the system, Emin is the minimum response of the system, logKA is the logarithm of the equilibrium dissociation constant, n is the slope of the transducer function, log R is the logarithm of the transduction ratio (τ/KA).
Each experiment was analyzed using the operational model which all individual experiments were fitted with a global shared slope. The LogR (equivalent to log [τ] /KA) values were estimated by GraphPad Prism (v.9.4.1) and were used to calculate the relative efficacy (RE) using Eqs.

CC(C)C[C@H](N)C(=O)N[C@@H](Cc1ccccc1)C(=O)N[C@H]1CSSC[C@@H](C(=O)N[C@@H](Cc2c[nH]c3ccccc23)C(=O)O)NC(=O)[C@H](CO)NC(=O)[C@H](CCCCN)NC(=O)[C@@H](Cc2c[nH]c3ccccc23)NC(=O)[C@H](Cc2ccccc2)NC1=O [pG1] (H-LFCF[dW]KSCW-OH; disulfide 3-8)
decrease of glucagon secretion (isolated mouse islets; 1 nM peptide, 1 mM glucose, 1 hour, p < 0.01, n = 9): ~ 33%
effect on glucagon secretion in high glucose (isolated mouse islets; 1 nM peptide, 10 mM glucose): Neither SS-14 nor Consomatin pG1 affected glucagon secretion in high glucose conditions
Islet glucagon secretion (isolated mouse islets; 1mM glucose, replicate 1): 0.1528
Islet glucagon secretion (isolated mouse islets; 1mM glucose, replicate 2): 0.1799
Islet glucagon secretion (isolated mouse islets; 1mM glucose, replicate 3): 0.229
Islet glucagon secretion (isolated mouse islets; 1mM glucose, replicate 4): 0.1754
Islet glucagon secretion (isolated mouse islets; 1mM glucose, replicate 5): 0.2817
Islet glucagon secretion (isolated mouse islets; 1mM glucose, replicate 6): 0.2671
Islet glucagon secretion (isolated mouse islets; 1mM glucose, replicate 7): 0.309
Islet glucagon secretion (isolated mouse islets; 1mM glucose, replicate 8): 0.2377
Islet glucagon secretion (isolated mouse islets; 1mM glucose, replicate 9): 0.1574
Islet glucagon secretion (isolated mouse islets; 10mM glucose, replicate 1): 0.1057
Islet glucagon secretion (isolated mouse islets; 10mM glucose, replicate 2): 0.1136
Islet glucagon secretion (isolated mouse islets; 10mM glucose, replicate 3): 0.1366
Islet glucagon secretion (isolated mouse islets; 10mM glucose, replicate 4): 0.1392
Islet glucagon secretion (isolated mouse islets; 10mM glucose, replicate 5): 0.1398
Islet glucagon secretion (isolated mouse islets; 10mM glucose, replicate 6): 0.1241
Islet glucagon secretion (isolated mouse islets; 10mM glucose, replicate 7): 0.1488
Islet glucagon secretion (isolated mouse islets; 10mM glucose, replicate 8): 0.2037
Islet glucagon secretion (isolated mouse islets; 10mM glucose, replicate 9): 0.1689
solubility in aqueous solutions in words [1]: did not observe any obvious differences in the solubility
Emax (human SSTR2 (GoB)): 76.7 ± 3.62%
Hill Slope (human SSTR2 (GoB); Table S2, GαoB): 1.46 ± 0.41
Span ± S.E.M. (human SSTR2 (GoB); Table S2, GαoB): 76.77 ± 4.97
EC50 (human SSTR2 (GoB); Table S2, GαoB, HEK293T, means ± S.E.M.): 8.32 nM
suppression of glucagon secretion (perfused rat pancreas; 0.1 nM, within 5 minute of application, […] glucose, n = 10 rats): 24%
further suppression of glucagon secretion (perfused rat pancreas; 1 nM, subsequent application, […] glucose, n = 10 rats): 45%
glucagon level in words (perfused rat pancreas; 10 nM, […] glucose): drastically reduced the glucagon level close to null
recovery of glucagon level after washout (perfused rat pancreas; after 0.1 nM, 15-minute washout, baseline 754.9 fmol/min): failed to return to the average baseline level
∆log(tau/Ka) (human SSTR2; Gi1 (Gαi1)): -1.977
LogR, Mean (human SSTR2; Gi1, N: SS-14 4, Octreotide 2, pG1 4): 7.421
LogR (human SSTR2; Gi1, replicate 1 (row r6)): 7.197
LogR (human SSTR2; Gi1, replicate 2 (row r7)): 7.651
LogR (human SSTR2; Gi1, replicate 3 (row r8)): 7.8528
LogR (human SSTR2; Gi1, replicate 4 (row r9)): 6.983
∆log(tau/Ka) (human SSTR2; Gi2 (Gαi2)): -1.482
LogR, Mean (human SSTR2; Gi2, N: SS-14 5, Octreotide 3, pG1 5): 7.871
LogR (human SSTR2; Gi2, replicate 1 (row r6)): 7.692
LogR (human SSTR2; Gi2, replicate 2 (row r7)): 7.679
LogR (human SSTR2; Gi2, replicate 3 (row r8)): 7.686
LogR (human SSTR2; Gi2, replicate 4 (row r9)): 8.256
LogR (human SSTR2; Gi2, replicate 5 (row r10)): 8.0434
∆log(tau/Ka) (human SSTR2; Gi3 (Gαi3)): -1.406
LogR, Mean (human SSTR2; Gi3, N: SS-14 3, Octreotide 2, pG1 3): 8.305
LogR (human SSTR2; Gi3, replicate 1 (row r6)): 7.832
LogR (human SSTR2; Gi3, replicate 2 (row r7)): 8.615
LogR (human SSTR2; Gi3, replicate 3 (row r8)): 8.468
∆log(tau/Ka) (human SSTR2; GoA (GαoA)): -1.083
LogR, Mean (human SSTR2; GoA, N: SS-14 4, Octreotide 2, pG1 2): 8.753
LogR (human SSTR2; GoA, replicate 1 (row r6)): 8.653
LogR (human SSTR2; GoA, replicate 4 (row r9)): 8.853
∆log(tau/Ka) (human SSTR2; GoB (GαoB)): -1.118
LogR, Mean (human SSTR2; GoB, N: SS-14 2, Octreotide 2, pG1 3): 8.505
LogR (human SSTR2; GoB, replicate 1 (row r6)): 8.36
LogR (human SSTR2; GoB, replicate 2 (row r7)): 8.764
LogR (human SSTR2; GoB, replicate 3 (row r8)): 8.39
LogR ± S.E.M. (human SSTR2; Gαi1): 7.42 ± 0.20
RE (human SSTR2; Gαi1, 10^∆log(τ/KA)): 0.01
∆LogR ± S.E.M. (human SSTR2; Gαi1): -1.98 ± 0.27
LogR ± S.E.M. (human SSTR2; Gαi2): 7.87 ± 0.12
RE (human SSTR2; Gαi2): 0.033
∆LogR ± S.E.M. (human SSTR2; Gαi2): -1.48 ± 0.31
LogR ± S.E.M. (human SSTR2; Gαi3): 8.30 ± 0.24
RE (human SSTR2; Gαi3): 0.039
∆LogR ± S.E.M. (human SSTR2; Gαi3): -1.41 ± 0.26
LogR ± S.E.M. (human SSTR2; GαoA): 8.75 ± 0.10
RE (human SSTR2; GαoA): 0.082
∆LogR ± S.E.M. (human SSTR2; GαoA): -1.08 ± 0.13
LogR ± S.E.M. (human SSTR2; GαoB): 8.50 ± 0.13
RE (human SSTR2; GαoB): 0.076
∆LogR ± S.E.M. (human SSTR2; GαoB): -1.12 ± 0.14
G protein bias in words (human SSTR2): does not bias towards Gi1 protein but preferentially couples to GoA and GoB protein
G protein bias in words (human SSTR2; listed as Consomatin pG1): displays G protein bias towards Go subunits
